Assay results from US10125453B2, “Antimicrobial textile products and method of obtaining thereof” (YEDITEPE ÜNIVERSITESI, priority 2013, dated 2018).

Experiments:
Format in all cases: cell-based
Design in all cases: key: +: inhibition zones against the tested microorganisms were observed; −: inhibition zones were not detected
[1] = system: Candida spp.; experiment: standard NCCLS disc diffusion method, Candida spp.; conditions: 100 u/disc, SDA, 36±1° C., 48 hours
Procedure: (§1) Antimicrobial properties of the textile products loaded with impregnation solution were examined by using standard NCCLS disc diffusion method (Lalitha, 2005). Briefly, the 100 μl solution including 10^8 cfu/ml bacteria, 10^6 cfu/ml yeast, and 10^4 spor/ml fungus was prepared with new cultures and inoculated with spreading method on Trypticase soy agar (TSA), Sabouraud Dextrose Agar (SDA), and Potato Dextrose Agar (PDA), respectively. The sections of approximately 1×1 cm, which were cut out from the textile products loaded with the impregnation solution comprising the stated concentrations of triclosan, chlorhexidine and disodium octaborate pentahydrate, were placed on inoculated petri dishes. Empty textile products which were not loaded with impregnation solution were used as negative control. As positive control, Ofloxacin (5 μg/disc) was used for bacteria and Nystatin (100 u/disc) was used for yeasts and fungi. The petri dishes, which were inoculated and on which textile products were placed, were kept at 36±1° C. for bacteria for 24 hours and 48 hours for yeasts and at 25±1° C. for fungi for 72 hours. Antimicrobial activity against microorganisms tested in standard disc diffusion method was assessed by measuring the inhibition zone. All tests were repeated at least twice.

[2] = system: Aspergillus spp.; experiment: standard NCCLS disc diffusion method, Aspergillus spp.; conditions: 100 u/disc, PDA, 25±1° C., 72 hours
Procedure: as §1

[3] = system: Penicillium spp.; experiment: standard NCCLS disc diffusion method, Penicillium spp.; conditions: 100 u/disc, PDA, 25±1° C., 72 hours
Procedure: as §1

[4] = system: Escherichia coli; experiment: standard NCCLS disc diffusion method, Escherichia coli; conditions: TSA, 36±1° C., 24 hours
Procedure: as §1, with “As positive control, Ofloxacin (5 μg/disc) was used for bacteria and Nystatin (100 u/disc) was used for yeasts and fungi.” left out

[5] = system: Staphylococcus aureus; experiment: standard NCCLS disc diffusion method, Staphylococcus aureus; conditions: 10 μg/disc, TSA, 36±1° C., 24 hours
Procedure: as §1, with “As positive control, Ofloxacin (5 μg/disc) was used for bacteria and Nystatin (100 u/disc) was used for yeasts and fungi.” left out

[6] = system: MRSA; experiment: standard NCCLS disc diffusion method, MRSA; conditions: TSA, 36±1° C., 24 hours
Procedure: as §1, with “As positive control, Ofloxacin (5 μg/disc) was used for bacteria and Nystatin (100 u/disc) was used for yeasts and fungi.” left out

[7] = system: Pseudomonas aeruginosa; experiment: standard NCCLS disc diffusion method, Pseudomonas aeruginosa; conditions: TSA, 36±1° C., 24 hours
Procedure: as §1, with “As positive control, Ofloxacin (5 μg/disc) was used for bacteria and Nystatin (100 u/disc) was used for yeasts and fungi.” left out

Measured: In vitro antimicrobial test result (inhibition zone), positive control

C[C@@H]1[C@H](O)[C@@H](C)/C=C/C=C/CC/C=C/C=C/C=C/C=C/C(O[C@H]2O[C@H](C)[C@@H](O)[C@H](N)[C@@H]2O)CC2O[C@](O)(CC(O)C(O)CCC(O)CC(O)CC(O)CC(=O)O[C@H]1C)CC(O)C2C(=O)O (stereo partly shown) [Nystatin]
+: [1] | [2] | [3]

CC1COc2c(N3CCN(C)CC3)c(F)cc3c(=O)c(C(=O)O)cn1c23 (stereo not shown) [Ofloxacin]
+: [4] | [5] | [6] | [7]
